The values below come from US20030152515A1, “Method for estimating effective regimens and patient survival rates of antibiotic treatments for fatal infectious diseases” (priority 2002, published 2003).

The subject of one assay is inhalational anthrax. The note with it: human, in vivo; cited from earlier work.
A further assay deals with Bacillus anthracis. To be noted: rhesus monkey, in vivo; cited from earlier work.
The next assay deals with anthrax. Kind of assay: microbe, parasite or virus in culture. To be noted: Bacillus anthracis, read-out: MIC against anthrax, mid point adopted in the analyses. It is filed as cell-based.
Assay [1] has as its system gram positive and negative organisms. To be noted: cited from earlier work.

SMILES strings stand for the structures. Values after ≈ are worked out from the molar mass of the structure shown. “Also recorded” adds a separate entry of the source.

Regarding `O=C(O)c1cn(C2CC2)c2cc(N3CCNCC3)c(F)cc2c1=O` [ciprofloxacin], in the assay with inhalational anthrax, the overall survival is given as 55%. Besides, in the assay on Bacillus anthracis, the “protection from the disease while on therapy” value is on record as “sufficient protection; also recorded: adequately protected” and the survival rate is on record as 90%. The MIC with anthrax was determined as 0.07 µg/mL (≈ 0.211 µM). For the same compound, the “MIC range of organisms in the literature study” value in assay [1] was 0.008−0.4 μg/mL.
